Laboratory results published in PubChem BioAssay (NCI).
Where “and” joins values, the source holds several entries; their conditions need not be identical. Identical values can stand only once.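 Method: 48-hour compound exposure of cells in 96-well plates, five concentrations, linear interpolation of endpoints. The concentration for 50% growth inhibition is given as GI50. TGI is the concentration that stops growth completely.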

Assays:
Experiment in all cases: inhibition of tumour cell growth, NCI panel, 48 h
LOX IMVI melanoma = test system: LOX IMVI melanoma
M14 melanoma = test system: M14 melanoma
MDA-MB-231 breast = test system: MDA-MB-231 breast
UO-31 renal = test system: UO-31 renal
OVCAR-4 ovarian = test system: OVCAR-4 ovarian
786-0 renal = test system: 786-0 renal
SNB-19 CNS = test system: SNB-19 CNS
UACC-257 melanoma = test system: UACC-257 melanoma
SW-620 colon = test system: SW-620 colon
NCI-H522 lung = test system: NCI-H522 lung

COc1cc2oc3c(c(=O)c2c(O)c1/C=C/C(C)C)C(C=C(C)C)Oc1cc(O)ccc1-3 (centres undefined)
TGI (LOX IMVI melanoma): 27.7 µM | TGI (M14 melanoma): 27.3 µM | TGI (MDA-MB-231 breast): 33.2 µM | TGI (UO-31 renal): 25.2 µM | TGI (OVCAR-4 ovarian): 31.5 µM | TGI (786-0 renal): 30.6 µM | TGI (SNB-19 CNS): 30.6 µM | TGI (UACC-257 melanoma): 32.6 µM | TGI (SW-620 colon): 32.3 µM | TGI (NCI-H522 lung): 32.3 µM

CN1CCN(c2nc(-c3csc(-c4cccs4)n3)cc3ccccc23)CC1
GI50 (LOX IMVI melanoma): 1.78 µM | TGI (LOX IMVI melanoma): 3.22 µM | GI50 (M14 melanoma): 1.87 µM | TGI (M14 melanoma): 3.71 µM | GI50 (MDA-MB-231 breast): 1.53 µM | TGI (MDA-MB-231 breast): 3.13 µM | GI50 (UO-31 renal): 1.66 µM | TGI (UO-31 renal): 3.17 µM | GI50 (OVCAR-4 ovarian): 2.18 µM | TGI (OVCAR-4 ovarian): 4.73 µM | GI50 (786-0 renal): 1.64 µM | TGI (786-0 renal): 3.15 µM | GI50 (SNB-19 CNS): 2.14 µM | TGI (SNB-19 CNS): 5.36 µM | GI50 (UACC-257 melanoma): 1.87 µM | TGI (UACC-257 melanoma): 3.68 µM | GI50 (SW-620 colon): 1.75 µM | TGI (SW-620 colon): 3.25 µM | GI50 (NCI-H522 lung): 1.94 µM | TGI (NCI-H522 lung): 3.95 µM

O=C1N(Cc2ccccc2Cl)c2ccccc2C12NN=C(c1cccc(Cl)c1)S2 (centres undefined)
GI50 (LOX IMVI melanoma): 1.49 µM | TGI (LOX IMVI melanoma): 2.92 µM | GI50 (M14 melanoma): 1.7 µM | TGI (M14 melanoma): 3.25 µM | GI50 (MDA-MB-231 breast): 2.02 µM | TGI (MDA-MB-231 breast): 4.2 µM | GI50 (UO-31 renal): 1.69 µM | TGI (UO-31 renal): 3.26 µM | GI50 (OVCAR-4 ovarian): 1.95 µM | TGI (OVCAR-4 ovarian): 4.05 µM | GI50 (786-0 renal): 1.72 µM | TGI (786-0 renal): 3.12 µM | GI50 (SNB-19 CNS): 1.75 µM | TGI (SNB-19 CNS): 3.32 µM | GI50 (UACC-257 melanoma): 1.7 µM | TGI (UACC-257 melanoma): 3.27 µM | GI50 (SW-620 colon): 2.02 µM | TGI (SW-620 colon): 4.33 µM | GI50 (NCI-H522 lung): 1.72 µM | TGI (NCI-H522 lung): 3.48 µM

CC1SC2(CCCCC2)N(NC(=O)c2[nH]c3ccc(Br)cc3c2-c2ccccc2)C1=O (centres undefined)
GI50 (LOX IMVI melanoma): 92.7 µM | TGI (LOX IMVI melanoma): > 100 µM | GI50 (M14 melanoma): 64 µM | TGI (M14 melanoma): > 100 µM | GI50 (MDA-MB-231 breast): 20.4 µM | TGI (MDA-MB-231 breast): 79.6 µM | GI50 (UO-31 renal): 21.6 µM | TGI (UO-31 renal): > 100 µM | GI50 (OVCAR-4 ovarian): 13.2 µM | TGI (OVCAR-4 ovarian): 90.7 µM | GI50 (786-0 renal): 17.5 µM | TGI (786-0 renal): 98.4 µM | GI50 (SNB-19 CNS): 40.8 µM | TGI (SNB-19 CNS): > 100 µM | GI50 (UACC-257 melanoma): 23.6 µM | TGI (UACC-257 melanoma): > 100 µM | GI50 (SW-620 colon): > 100 µM | TGI (SW-620 colon): > 100 µM | GI50 (NCI-H522 lung): 6.78 µM | TGI (NCI-H522 lung): > 100 µM

CCc1nc(N)nc(N)c1-c1ccc(Cl)c(N=[N+]=[N-])c1
TGI (LOX IMVI melanoma): > 100 µM and 67.7 µM | GI50 (M14 melanoma): 0.641 µM and 3.51 µM | TGI (M14 melanoma): 24.1 µM and 49 µM | TGI (MDA-MB-231 breast): > 67.6 µM and 46.5 µM | GI50 (UO-31 renal): 5.8 µM and 14.6 µM | TGI (UO-31 renal): 88 µM and > 100 µM | TGI (OVCAR-4 ovarian): 97.7 µM and > 100 µM | TGI (786-0 renal): > 77.8 µM and 45.2 µM | GI50 (SNB-19 CNS): 5.09 µM and 19.5 µM | TGI (SNB-19 CNS): > 100 µM | GI50 (UACC-257 melanoma): 1.58 µM and 12.9 µM | TGI (UACC-257 melanoma): 40 µM and > 92.7 µM | TGI (SW-620 colon): > 100 µM | TGI (NCI-H522 lung): 42.5 µM and 29.4 µM

NC(=O)c1sc(-n2cnc3cc(C(F)(F)F)ccc32)cc1OCc1ccccc1Br
GI50 (LOX IMVI melanoma): > 17.5 µM | TGI (LOX IMVI melanoma): > 25 µM | GI50 (M14 melanoma): > 25 µM | TGI (M14 melanoma): > 25 µM | GI50 (MDA-MB-231 breast): > 17.6 µM | TGI (MDA-MB-231 breast): > 25 µM | GI50 (UO-31 renal): > 25 µM | TGI (UO-31 renal): > 25 µM | GI50 (OVCAR-4 ovarian): 9.02 µM | TGI (OVCAR-4 ovarian): > 25 µM | GI50 (786-0 renal): 18.4 µM | TGI (786-0 renal): > 25 µM | GI50 (SNB-19 CNS): > 19.1 µM | TGI (SNB-19 CNS): > 25 µM | GI50 (UACC-257 melanoma): > 25 µM | TGI (UACC-257 melanoma): > 25 µM | GI50 (SW-620 colon): > 17.9 µM | TGI (SW-620 colon): > 25 µM | GI50 (NCI-H522 lung): > 20 µM | TGI (NCI-H522 lung): > 25 µM

CCCCCCNCc1cc(C(C)(C)C)cc(CNCCCCCC)c1O
GI50 (LOX IMVI melanoma): 1.58 µM | TGI (LOX IMVI melanoma): 2.94 µM | GI50 (M14 melanoma): 1.75 µM | TGI (M14 melanoma): 3.18 µM | GI50 (MDA-MB-231 breast): 1.35 µM | TGI (MDA-MB-231 breast): 2.7 µM | GI50 (UO-31 renal): 1.37 µM | TGI (UO-31 renal): 2.8 µM | GI50 (OVCAR-4 ovarian): 1.85 µM | TGI (OVCAR-4 ovarian): 3.47 µM | GI50 (786-0 renal): 1.77 µM | TGI (786-0 renal): 3.26 µM | GI50 (SNB-19 CNS): 1.76 µM | TGI (SNB-19 CNS): 3.23 µM | GI50 (UACC-257 melanoma): 1.67 µM | TGI (UACC-257 melanoma): 3.13 µM | GI50 (SW-620 colon): 1.66 µM | TGI (SW-620 colon): 3.1 µM | GI50 (NCI-H522 lung): 1.65 µM | TGI (NCI-H522 lung): 3.13 µM
